Results from article PMC12268802, “The herbicidal natural product phosphonothrixin is an inhibitor of the riboflavin biosynthetic enzyme L‐3,4‐dihydroxy‐2‐butanone‐4‐phosphate synthase” (Pest Management Science, 2025).

Assays:
[1] = cited from earlier work
[2] = tested on: imidazoleglycerol phosphate dehydratase; parameters: method as in PMID 12228396; conditions: cited from earlier work
EPSP synthase = tested on: EPSP synthase; parameters: method as in PMID 1939260; conditions: from several higher plants; cited from earlier work
Lemna gibba = Lemna gibba growth assay; format: in vivo; conditions: 7 days
Protocol: Growth experiments were performed in sterile 6‐well cell culture plates and were initiated by transferring four Lemna gibba fronds per well to 5 mL of K‐medium[22] pH 4.8 containing 1% (w/v) sucrose and a selected concentration of phosphonothrixin (1) and riboflavin determined from previous experiments. The cell culture plates were incubated for 7 days in a growth cabinet at 22 °C and a continuous photon flux density of 75 μE/m^2s.

[3] = target: dihydroxy‐acid dehydratase; parameters: method as in PMID 29995859; conditions: Arabidopsis enzyme; cited from earlier work
DHBPS activity assay = substrate: O=C(CO)[C@H](O)[C@H](O)COP(=O)(O)O; assay: DHBPS activity assay; format: biochemical, Arabidopsis thaliana; conditions: other: substrate varied 0 to 2 mM; pH 6.5
Protocol: DHBPS activity assays were out carried in 96‐well microtiter plates using a modification of the procedure previously described.[18] The reaction mixture contained 100 mM MES (2‐morpholinoethanesulfonic acid) buffer pH 6.5, 20 mM MgCl2, 20 mM D‐ribose‐5‐phosphate (Sigma‐Aldrich R7750), 0.02% Tween‐20, 0.2 mg BSA, 0.5 μg of spinach phosphoriboisomerase (Sigma‐Aldrich P9752) and DHBPS enzyme in a final volume of 110 μL. Assays were initiated by adding enzyme and terminated after 120 min incubation at rt by the addition of 90 μL of a solution of 3.5% α‐naphthol and 0.2% creatine in 2 N NaOH. After an additional 45 min incubation at rt the absorbance was determined at 540 nm. The pI50‐value for inhibition by phosphonothrixin (1) was determined with the XLFit Excel add‐in version 4.3.1 curve fitting program of ID Business Solutions Limited. […] Reaction velocities were fitted to the Michaelis–Menten equation with the XLFit curve fitting program.

[4] = 50 μM riboflavin in the presence of 100 μM phosphonothrixin

O=P(O)(O)[C@H]1CCC[C@@](O)(c2nc[nH]n2)C1 (relative stereo) [IRL1803, trans‐(3‐hydroxy‐3‐(1H‐1,2,4‐triazol‐3‐yl)cyclohexyl)‐phosphonic acid]
application rate required for a significant herbicidal effect [1]: ~1 kg ha^−1
potency against imidazoleglycerol phosphate dehydratase [2]: nanomolar inhibitor

O=C(O)CNCP(=O)(O)O [glyphosate]
IC50-values, EPSP synthase (EPSP synthase): single and double‐digit micromolar range

Cc1cc2nc3c(=O)[nH]c(=O)nc-3n(C[C@H](O)[C@H](O)[C@H](O)CO)c2cc1C [riboflavin]
bleaching of Lemna gibba fronds (Lemna gibba; 50 μM riboflavin alone): some mild bleaching of the fronds
growth of Lemna gibba (Lemna gibba; 50 μM riboflavin alone): did not affect the growth
reversal of bleaching of Lemna gibba (Lemna gibba; [4]): reversed the bleaching phenotype to the level observed in the experiment where only riboflavin had been applied
reversal of growth inhibition of Lemna gibba (Lemna gibba; [4]): almost completely alleviated the growth inhibition

aspterric acid
IC50 [3]: 500 nM

B1: AtDHBPS (Arabidopsis thaliana) (protein)
chain: MFVAEDDDFELDLPTPGFSSIPEAIEDIRQGKLVVVVDDEDRENEGDLVMAAQLATPEAMAFIVRHGTGIVCVSMKEDDLERLHLPLMVNQKENEEKLSTAFTVTVDAKHGTTTGVSARDRATTILSLASRDSKPEDFNRPGHIFPLKYREGGVLKRAGHTEASVDLTVLAGLDPVGVLCEIVDDDGSMARLPKLREFAAENNLKVVSIADLIRYRRKRDKLVERASKGGRADPAFLYKVVINSKLEGKPIPNPLLGLDSTRTGHHHHHH
notes: made in house; host or cells: Escherichia coli BL21(DE3)
Km (DHBPS activity assay): 150 ± 20 µM
